Legend:
Format in all cases: biochemical
[1] = target: kinases (Homo sapiens, UniProt P35968); conditions: KDR (VEGFR2) FRET-Z-Lyte SP; Test Conc(μM):ATP Conc(μM) 1:75
[2] = target: kinases (Homo sapiens, UniProt P06239); conditions: LCK FRET-Z-Lyte SP; Test Conc(μM):ATP Conc(μM) 1:50
[3] = target: kinases (Homo sapiens, UniProt Q13555); conditions: CAMK2G FRET-Lantha SP; Test Conc(μM) 1
[4] = target: kinases (Homo sapiens, UniProt Q09013); conditions: DMPK FRET-Lantha SP; Test Conc(μM) 1
[5] = target: kinases (Homo sapiens, UniProt O00141); conditions: SGK (SGK1) FRET-Z-Lyte SP; Test Conc(μM):ATP Conc(μM) 1:25
[6] = target: kinases (Homo sapiens, UniProt Q07002); conditions: CDK18/cyclin Y FRET-Z-Lyte SP; Test Conc(μM):ATP Conc(μM) 1:75
kinases (Homo sapiens, UniProt Q07002), sequence (Q07002 whole entry): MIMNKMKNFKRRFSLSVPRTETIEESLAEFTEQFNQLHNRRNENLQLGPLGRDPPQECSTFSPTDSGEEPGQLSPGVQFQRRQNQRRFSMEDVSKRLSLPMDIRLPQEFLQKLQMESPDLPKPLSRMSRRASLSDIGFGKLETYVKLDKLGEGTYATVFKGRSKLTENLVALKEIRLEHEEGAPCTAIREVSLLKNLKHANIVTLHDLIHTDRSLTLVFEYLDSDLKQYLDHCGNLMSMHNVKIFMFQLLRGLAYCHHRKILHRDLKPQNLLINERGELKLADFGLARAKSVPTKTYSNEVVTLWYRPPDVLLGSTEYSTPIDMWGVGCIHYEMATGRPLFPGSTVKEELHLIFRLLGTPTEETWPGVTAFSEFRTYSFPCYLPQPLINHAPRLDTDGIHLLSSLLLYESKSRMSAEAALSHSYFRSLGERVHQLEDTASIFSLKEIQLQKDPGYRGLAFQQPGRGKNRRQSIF

[7] = target: kinases (Homo sapiens, UniProt P27037); conditions: ACVR2A FRET-Lantha SP; Test Conc(μM) 1
[8] = target: kinases (Homo sapiens, UniProt Q9NWZ3); conditions: IRAK4 *Mn* FRET-Z-Lyte SP; Test Conc(μM):ATP Conc(μM) 1:25
kinases (Homo sapiens, UniProt Q9NWZ3), sequence (Q9NWZ3 whole entry): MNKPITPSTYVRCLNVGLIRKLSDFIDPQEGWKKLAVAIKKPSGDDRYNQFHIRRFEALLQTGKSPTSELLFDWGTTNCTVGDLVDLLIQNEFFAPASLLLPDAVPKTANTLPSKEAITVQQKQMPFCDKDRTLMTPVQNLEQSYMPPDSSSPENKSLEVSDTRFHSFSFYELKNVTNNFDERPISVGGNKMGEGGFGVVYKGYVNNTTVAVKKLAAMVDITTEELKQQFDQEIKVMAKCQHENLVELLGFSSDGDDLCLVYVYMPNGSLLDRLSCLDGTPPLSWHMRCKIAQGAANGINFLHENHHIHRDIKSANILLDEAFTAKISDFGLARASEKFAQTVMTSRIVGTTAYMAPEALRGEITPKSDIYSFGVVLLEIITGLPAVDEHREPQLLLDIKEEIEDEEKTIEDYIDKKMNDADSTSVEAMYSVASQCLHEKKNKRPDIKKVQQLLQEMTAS

[9] = target: kinases (Homo sapiens, UniProt Q8WTQ7); conditions: GRK7 FRET-Z-Lyte SP; Test Conc(μM):ATP Conc(μM) 1:10
[10] = target: kinases (Homo sapiens, UniProt P42681); conditions: TXK FRET-Z-Lyte SP; Test Conc(μM):ATP Conc(μM) 1:100
[11] = target: kinases (Homo sapiens, UniProt Q15349); conditions: RPS6KA2 (RSK3) FRET-Z-Lyte SP; Test Conc(μM):ATP Conc(μM) 1:10
[12] = target: kinases (Homo sapiens, UniProt P36896); conditions: ACVR1B (ALK4) *Mn* Z-Lyte SP; Test Conc(μM):ATP Conc(μM) 1:5
[13] = target: kinases (Homo sapiens, UniProt Q9HCP0); conditions: CSNK1G1 (CK1gamma1) Z-Lyte SP; Test Conc(μM):ATP Conc(μM) 1:5
kinases (Homo sapiens, UniProt Q9HCP0), sequence (Q9HCP0 whole entry): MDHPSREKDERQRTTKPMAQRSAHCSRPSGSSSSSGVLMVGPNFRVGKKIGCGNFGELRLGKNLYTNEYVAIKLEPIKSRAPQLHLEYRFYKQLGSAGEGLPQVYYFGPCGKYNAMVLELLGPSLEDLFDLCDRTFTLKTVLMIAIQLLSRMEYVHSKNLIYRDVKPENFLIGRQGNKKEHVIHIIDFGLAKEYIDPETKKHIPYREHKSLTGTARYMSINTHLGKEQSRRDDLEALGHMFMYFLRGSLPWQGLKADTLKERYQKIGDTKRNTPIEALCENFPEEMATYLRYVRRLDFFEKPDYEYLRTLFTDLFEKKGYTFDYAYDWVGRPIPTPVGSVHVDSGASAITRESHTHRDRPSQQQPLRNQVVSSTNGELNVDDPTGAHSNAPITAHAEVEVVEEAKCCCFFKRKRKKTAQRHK

[14] = target: kinases (Homo sapiens, UniProt Q8IU85); conditions: CAMK1D FRET-Z-Lyte SP; Test Conc(μM):ATP Conc(μM) 1:25
[15] = target: kinases (Homo sapiens, UniProt Q9P1W9); conditions: PIM2 FRET-Z-Lyte SP; Test Conc(μM):ATP Conc(μM) 1:5
kinases (Homo sapiens, UniProt Q9P1W9), sequence (Q9P1W9 whole entry): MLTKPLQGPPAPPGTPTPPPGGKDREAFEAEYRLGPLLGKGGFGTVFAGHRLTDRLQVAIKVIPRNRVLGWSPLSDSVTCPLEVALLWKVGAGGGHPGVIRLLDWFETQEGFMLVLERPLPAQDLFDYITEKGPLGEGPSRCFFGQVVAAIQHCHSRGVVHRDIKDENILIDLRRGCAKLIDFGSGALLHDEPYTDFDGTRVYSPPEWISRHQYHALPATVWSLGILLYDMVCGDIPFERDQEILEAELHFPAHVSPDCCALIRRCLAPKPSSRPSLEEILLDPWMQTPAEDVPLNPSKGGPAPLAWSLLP

[16] = target: kinases (Homo sapiens, UniProt O00238); conditions: BMPR1B (ALK6) FRET-Lantha SP; Test Conc(μM) 1
[17] = target: kinases (Homo sapiens, UniProt P49841); conditions: GSK3B FRET-Z-Lyte SP; Test Conc(μM):ATP Conc(μM) 1:10
kinases (Homo sapiens, UniProt P49841), sequence (P49841 whole entry): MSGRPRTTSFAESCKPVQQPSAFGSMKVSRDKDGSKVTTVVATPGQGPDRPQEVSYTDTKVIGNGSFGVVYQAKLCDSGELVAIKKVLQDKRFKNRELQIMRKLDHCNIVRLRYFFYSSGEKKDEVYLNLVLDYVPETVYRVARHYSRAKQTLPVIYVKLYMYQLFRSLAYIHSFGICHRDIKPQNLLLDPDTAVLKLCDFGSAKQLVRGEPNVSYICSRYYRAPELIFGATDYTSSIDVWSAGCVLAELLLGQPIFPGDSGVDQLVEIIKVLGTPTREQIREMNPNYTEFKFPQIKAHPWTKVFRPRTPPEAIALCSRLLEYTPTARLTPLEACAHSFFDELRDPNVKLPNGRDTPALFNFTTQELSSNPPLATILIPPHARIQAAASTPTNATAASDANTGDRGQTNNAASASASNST

[18] = target: kinases (Homo sapiens, UniProt O96013); conditions: PAK4 FRET-Z-Lyte SP; Test Conc(μM):ATP Conc(μM) 1:5
[19] = target: kinases (Homo sapiens, UniProt Q76MJ5); conditions: ERN2 FRET-Lantha SP; Test Conc(μM) 1
[20] = target: kinases (Homo sapiens, UniProt Q9BXA7); conditions: STK22D (TSSK1) FRET-Z-Lyte SP; Test Conc(μM):ATP Conc(μM) 1:10
kinases (Homo sapiens, UniProt Q9BXA7), sequence (Q9BXA7 whole entry): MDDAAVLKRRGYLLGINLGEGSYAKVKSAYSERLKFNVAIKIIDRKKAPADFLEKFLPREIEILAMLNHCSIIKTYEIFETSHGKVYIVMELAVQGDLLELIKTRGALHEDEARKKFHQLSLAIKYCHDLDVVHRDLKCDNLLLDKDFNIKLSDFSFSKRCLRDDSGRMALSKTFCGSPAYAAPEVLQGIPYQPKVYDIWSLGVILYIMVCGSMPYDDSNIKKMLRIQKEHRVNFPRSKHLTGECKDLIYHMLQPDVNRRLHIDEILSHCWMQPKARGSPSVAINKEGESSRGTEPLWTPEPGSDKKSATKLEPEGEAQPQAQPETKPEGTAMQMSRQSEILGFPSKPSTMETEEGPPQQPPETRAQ

[21] = target: kinases (Homo sapiens, UniProt O96017); conditions: CHEK2 (CHK2) FRET-Z-Lyte SP; Test Conc(μM):ATP Conc(μM) 1:75
kinases (Homo sapiens, UniProt O96017), sequence (O96017 whole entry): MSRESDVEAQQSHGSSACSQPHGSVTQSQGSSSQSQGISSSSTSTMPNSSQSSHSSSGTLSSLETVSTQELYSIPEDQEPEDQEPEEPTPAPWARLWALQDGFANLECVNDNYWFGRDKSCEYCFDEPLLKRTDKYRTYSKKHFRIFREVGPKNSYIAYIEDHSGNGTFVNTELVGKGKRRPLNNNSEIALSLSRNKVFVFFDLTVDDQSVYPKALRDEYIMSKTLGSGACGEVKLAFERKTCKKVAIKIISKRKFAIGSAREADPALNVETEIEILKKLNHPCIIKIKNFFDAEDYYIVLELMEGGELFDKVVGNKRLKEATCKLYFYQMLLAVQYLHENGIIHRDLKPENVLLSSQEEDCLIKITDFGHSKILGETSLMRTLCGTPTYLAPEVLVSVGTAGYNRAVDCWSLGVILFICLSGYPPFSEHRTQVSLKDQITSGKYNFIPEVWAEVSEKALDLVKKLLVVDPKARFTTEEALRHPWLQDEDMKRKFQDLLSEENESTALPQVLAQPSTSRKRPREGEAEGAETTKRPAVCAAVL

[22] = target: kinases (Homo sapiens, UniProt P21709); conditions: EPHA1 FRET-Z-Lyte SP; Test Conc(μM):ATP Conc(μM) 1:25
[23] = target: kinases (Homo sapiens, UniProt P53778); conditions: MAPK12 (p38 gamma) Z-Lyte SP; Test Conc(μM):ATP Conc(μM) 1:10
[24] = target: kinases (Homo sapiens, UniProt Q9Y2K2); conditions: SIK3 FRET-Lantha SP; Test Conc(μM) 1
[25] = target: kinases (Homo sapiens, UniProt O60331); conditions: Test Conc(μM):ATP Conc(μM) 1:10
kinases (Homo sapiens, UniProt O60331), sequence (O60331 whole entry): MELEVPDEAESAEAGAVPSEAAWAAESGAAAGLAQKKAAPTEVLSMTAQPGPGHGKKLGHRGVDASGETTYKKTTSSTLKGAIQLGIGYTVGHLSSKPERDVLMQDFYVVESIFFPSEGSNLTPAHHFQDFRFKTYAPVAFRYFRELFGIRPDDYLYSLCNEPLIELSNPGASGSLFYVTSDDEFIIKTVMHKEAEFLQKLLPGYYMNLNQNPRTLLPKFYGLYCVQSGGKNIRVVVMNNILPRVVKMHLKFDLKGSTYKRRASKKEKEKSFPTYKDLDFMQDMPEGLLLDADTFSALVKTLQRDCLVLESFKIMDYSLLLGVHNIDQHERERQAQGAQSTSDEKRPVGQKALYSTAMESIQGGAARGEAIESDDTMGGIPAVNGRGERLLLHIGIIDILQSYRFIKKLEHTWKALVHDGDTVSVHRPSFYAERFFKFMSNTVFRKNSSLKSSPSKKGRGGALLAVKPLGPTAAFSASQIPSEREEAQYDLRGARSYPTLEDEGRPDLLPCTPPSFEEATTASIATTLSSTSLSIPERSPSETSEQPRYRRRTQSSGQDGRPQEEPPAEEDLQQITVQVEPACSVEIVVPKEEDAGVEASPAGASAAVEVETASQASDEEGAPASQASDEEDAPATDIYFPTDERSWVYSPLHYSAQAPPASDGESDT

[26] = target: kinases (Homo sapiens, UniProt P42685); conditions: FRK (PTK5) FRET-Z-Lyte SP; Test Conc(μM):ATP Conc(μM) 1:50
[27] = target: kinases (Homo sapiens, UniProt O00444); conditions: PLK4 FRET-Lantha SP; Test Conc(μM) 1
[28] = target: kinases (Homo sapiens, UniProt P78368); conditions: CSNK1G2 (CK1gamma2) Z-Lyte SP; Test Conc(μM):ATP Conc(μM) 1:5

kinases (Homo sapiens, UniProt P06239), sequence (P06239 whole entry): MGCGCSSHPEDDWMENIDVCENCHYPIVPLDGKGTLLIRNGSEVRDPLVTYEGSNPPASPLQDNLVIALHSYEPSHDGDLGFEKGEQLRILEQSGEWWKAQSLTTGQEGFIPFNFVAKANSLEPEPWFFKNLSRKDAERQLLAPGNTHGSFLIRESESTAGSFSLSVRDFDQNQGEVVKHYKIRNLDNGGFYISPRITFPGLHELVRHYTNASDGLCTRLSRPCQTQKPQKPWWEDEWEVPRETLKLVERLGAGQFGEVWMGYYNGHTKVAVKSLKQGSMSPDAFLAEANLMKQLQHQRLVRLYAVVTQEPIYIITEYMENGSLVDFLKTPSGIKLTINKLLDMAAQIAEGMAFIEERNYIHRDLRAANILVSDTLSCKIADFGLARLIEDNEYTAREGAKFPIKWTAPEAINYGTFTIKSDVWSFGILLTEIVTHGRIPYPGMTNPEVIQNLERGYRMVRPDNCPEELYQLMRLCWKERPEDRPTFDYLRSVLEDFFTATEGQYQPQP
kinases (Homo sapiens, UniProt Q13555), sequence (Q13555 whole entry): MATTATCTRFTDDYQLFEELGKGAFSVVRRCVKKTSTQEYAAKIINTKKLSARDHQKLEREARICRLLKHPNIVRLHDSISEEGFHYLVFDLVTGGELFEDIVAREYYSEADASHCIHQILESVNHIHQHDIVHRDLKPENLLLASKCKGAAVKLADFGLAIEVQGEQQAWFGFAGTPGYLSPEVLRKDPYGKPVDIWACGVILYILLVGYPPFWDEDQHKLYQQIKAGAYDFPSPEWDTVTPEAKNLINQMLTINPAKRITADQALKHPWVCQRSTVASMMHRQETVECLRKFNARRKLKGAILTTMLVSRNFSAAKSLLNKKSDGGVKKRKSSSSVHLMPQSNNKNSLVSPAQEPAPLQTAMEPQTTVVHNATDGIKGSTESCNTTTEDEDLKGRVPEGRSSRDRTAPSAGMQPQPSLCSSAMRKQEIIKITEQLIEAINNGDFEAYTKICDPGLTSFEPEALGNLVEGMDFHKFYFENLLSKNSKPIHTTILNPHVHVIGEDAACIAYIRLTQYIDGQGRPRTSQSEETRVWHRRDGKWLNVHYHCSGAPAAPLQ

SMILES	Mean Inhib (%) [1] [%]	Mean Inhib (%) [2] [%]	Mean Inhib (%) [3] [%]	Mean Inhib (%) [4] [%]	Mean Inhib (%) [5] [%]	Mean Inhib (%) [6] [%]	Mean Inhib (%) [7] [%]	Mean Inhib (%) [8] [%]	Mean Inhib (%) [9] [%]	Mean Inhib (%) [10] [%]	Mean Inhib (%) [11] [%]	Mean Inhib (%) [12] [%]	Mean Inhib (%) [13] [%]	Mean Inhib (%) [14] [%]	Mean Inhib (%) [15] [%]	Mean Inhib (%) [16] [%]	Mean Inhib (%) [17] [%]	Mean Inhib (%) [18] [%]	Mean Inhib (%) [19] [%]	Mean Inhib (%) [20] [%]	also measured
Cc1ccc(NC(=O)c2ccnc(N3CCOCC3)c2)cc1Nc1ccnc(N2CC(C)OC(C)C2)n1 (centres unmarked) [compound 3]	3.2	−4.1	−1.7	7.1	−7.0	2.7	3.8	12.7	4.6	5.1	9.0	6.8	5.2	0.0	−0.3	11.9	6.5	0.9	−3.5	18.8	Mean Inhib (%) [21]: 10.2%; Mean Inhib (%) [22]: 6.7%; Mean Inhib (%) [23]: 5.1%; Mean Inhib (%) [24]: 5.6%; Mean Inhib (%) ([25]; PIP5K1C FRET-Adapta SP): −4.5%; Mean Inhib (%) [26]: 5.7%; Mean Inhib (%) [27]: 0.2%; Mean Inhib (%) [28]: 3.9%
Cc1cc(Oc2ccnc(Nc3ccc(S(N)(=O)=O)cc3)c2)c(-c2ccccn2)nc1C [compound 65]	3.8	39.7	1.3	0.5	−1.4	1.2	71.5	6.8	8.3	44.8	0.2	97.8	−1.9	−7.6	3.7	107.0	4.9	7.4	7.1	12.2	Mean Inhib (%) [21]: 0.4%; Mean Inhib (%) [22]: 55.3%; Mean Inhib (%) [23]: 4.1%; Mean Inhib (%) [24]: −4.7%; PIP5K1C FRET-Adapta SP Mean Mean Inhib (%) ([25]; PIP5K1C): 3.2%; Mean Inhib (%) [26]: 60.1%; Mean Inhib (%) [27]: 6.1%; Mean Inhib (%) [28]: 5.9%

Reference: US20220187282A1, “CARDIOMYOCYTE PROLIFERATION” (The Council of the Queensland Institute of Medical Research, priority 2019, published 2022)
